From ChEMBL document CHEMBL1201862, “PubChem BioAssay data set” (2004)
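Briefly, cells in 96-well plates were exposed to five compound concentrations for 48 h, and endpoints were estimated by linear interpolation. GI50 is the concentration that inhibits growth by half.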 Active and inactive are the calls of the source. No stated cut-off is given here; in the data, active = GI50 up to about 1.1 µM and inactive = higher.

Columns and labels:
Test in all cases: growth of human tumour cells (NCI), 48 h
CCRF-CEM = test system: CCRF-CEM
HCC 2998 = test system: HCC 2998
NCI-H23 = test system: NCI-H23
OVCAR-8 = test system: OVCAR-8
KM12 = test system: KM12
RPMI-8226 = test system: RPMI-8226
NCI-H226 = test system: NCI-H226
OVCAR-5 = test system: OVCAR-5
HL-60 = test system: HL-60
OVCAR-3 = test system: OVCAR-3
HT-29 = test system: HT-29
SR = test system: SR
DMS-273 = test system: DMS-273
HOP-92 = test system: HOP-92
SK-MEL-5 = test system: SK-MEL-5
DMS-114 = test system: DMS-114
MCF7 = test system: MCF7
BT-549 = test system: BT-549
PC-3 = test system: PC-3
DU-145 = test system: DU-145

| SMILES | GI50 (CCRF-CEM) | GI50 (HCC 2998) | GI50 (NCI-H23) | GI50 (OVCAR-8) | GI50 (KM12) | GI50 (RPMI-8226) | GI50 (NCI-H226) | GI50 (OVCAR-5) | GI50 (HL-60) | GI50 (OVCAR-3) | GI50 (HT-29) | GI50 (SR) | GI50 (DMS-273) | GI50 (HOP-92) | GI50 (SK-MEL-5) | GI50 (DMS-114) | GI50 (MCF7) | GI50 (BT-549) | GI50 (PC-3) | GI50 (DU-145) |
| --- | --- | --- | --- | --- | --- | --- | --- | --- | --- | --- | --- | --- | --- | --- | --- | --- | --- | --- | --- | --- |
| O=[N+]([O-])C(=C1c2ccccc2-c2ccccc21)[N+](=O)[O-] | 47.6 µM (inactive) | 70.5 µM (inactive) | > 10 µM (inactive) | > 100 µM (inactive) | 57.5 µM (inactive) | 44 µM (inactive) | 69.2 µM (inactive) | 91.2 µM (inactive) | 29.2 µM (inactive) | > 100 µM (inactive) | 50.6 µM (inactive) | > 100 µM (inactive) | > 10 µM (inactive) |  |  |  |  |  |  |  |
| COc1ccc(NC(=O)CC2S/C(=N\c3ccccc3C)NC2=O)c([N+](=O)[O-])c1 (stereo unspecified) |  | > 100 µM (inactive) | > 100 µM (inactive) | > 100 µM (inactive) | > 100 µM (inactive) | > 100 µM (inactive) | > 100 µM (inactive) | > 100 µM (inactive) | > 100 µM (inactive) | > 100 µM (inactive) | > 100 µM (inactive) | > 100 µM (inactive) | > 100 µM (inactive) | > 100 µM (inactive) |  |  |  |  |  |  |
| NC(N)NCCCc1cn2c(n1)C1CCCN1C(=O)C2Cc1ccccc1 (stereo unspecified) | > 100 µM (inactive) | > 100 µM (inactive) | > 100 µM (inactive) | > 100 µM (inactive) | > 100 µM (inactive) | > 100 µM (inactive) | > 100 µM (inactive) | > 100 µM (inactive) |  | > 100 µM (inactive) | > 100 µM (inactive) |  | > 100 µM (inactive) |  | > 100 µM (inactive) | > 100 µM (inactive) |  |  |  |  |
| O=C1C2CC(Cl)C(SSC3CC4C(=O)N(SC(Cl)(Cl)C(Cl)Cl)C(=O)C4CC3Cl)CC2C(=O)N1SC(Cl)(Cl)C(Cl)Cl (stereo unspecified) | 0.249 µM (active) | 4.43 µM (inactive) | 1.66 µM (inactive) | 1.45 µM (inactive) | 5.04 µM (inactive) | 1.81 µM (inactive) | 3.67 µM (inactive) | 17 µM (inactive) | 0.543 µM (active) | 2.05 µM (inactive) | 1.77 µM (inactive) | 0.229 µM (active) |  | 1.61 µM (inactive) | 1.97 µM (inactive) |  | 1.67 µM (inactive) | 1.7 µM (inactive) | 1.29 µM (inactive) | 2.6 µM (inactive) |
| CC(C)OC(=O)c1ccc(CCC2=CC(=O)C(Br)=CC2=O)cc1 | 0.783 µM (active) | 16.9 µM (inactive) | 13.2 µM (inactive) | 15.3 µM (inactive) | 13 µM (inactive) | 7.26 µM (inactive) | 19.8 µM (inactive) | 22.1 µM (inactive) | 2.16 µM (inactive) | 14.8 µM (inactive) | 16.8 µM (inactive) | 3.82 µM (inactive) |  | 12.4 µM (inactive) | 12.8 µM (inactive) |  | 17.7 µM (inactive) | 5.27 µM (inactive) | 17 µM (inactive) | 23.7 µM (inactive) |
| COC(=O)c1cc(C#N)[nH]c1-c1ccc(Br)s1 | 21.1 µM (inactive) | 17.9 µM (inactive) | 5.08 µM (inactive) | 12.8 µM (inactive) | 16.7 µM (inactive) | 5.08 µM (inactive) | 8.55 µM (inactive) | 11.2 µM (inactive) | 11.5 µM (inactive) | 3.58 µM (inactive) | 12.4 µM (inactive) | 16.8 µM (inactive) |  | 4.1 µM (inactive) | 4.11 µM (inactive) |  | 0.459 µM (active) | 10.9 µM (inactive) | 1.75 µM (inactive) | 10.8 µM (inactive) |
| Clc1nc2c(C#Cc3ccccc3)ncnc2n1C1CCCCO1 (stereo unspecified) | 5.15 µM (inactive) | 14.7 µM (inactive) | 12.9 µM (inactive) | 19.9 µM (inactive) | 14 µM (inactive) | 4.12 µM (inactive) | 71.3 µM (inactive) | 12.6 µM (inactive) | 11.7 µM (inactive) | 14.8 µM (inactive) | 12.4 µM (inactive) | 4.37 µM (inactive) |  | 14.8 µM (inactive) | 11.6 µM (inactive) |  | 8.32 µM (inactive) | 14.8 µM (inactive) | 12.2 µM (inactive) | 19 µM (inactive) |
| Cc1ccc(O)c(C(c2ccc(C(c3cc(C)ccc3O)c3cc(C)ccc3O)cc2)c2cc(C)ccc2O)c1 | 2.28 µM (inactive) | 1.8 µM (inactive) | 1.79 µM (inactive) | 1.81 µM (inactive) | 1.67 µM (inactive) | 1.56 µM (inactive) | 1.86 µM (inactive) | 1.84 µM (inactive) | 2.26 µM (inactive) | 1.74 µM (inactive) | 1.87 µM (inactive) | 2.62 µM (inactive) |  | 2.32 µM (inactive) | 1.77 µM (inactive) |  | 2.31 µM (inactive) | 2.01 µM (inactive) | 1.59 µM (inactive) | 1.74 µM (inactive) |
| O=c1c2ccccc2[nH]c(=S)n1-c1ccc(Br)cc1 |  | > 100 µM (inactive) | 51.9 µM (inactive) | 95.5 µM (inactive) | > 100 µM (inactive) | 40.1 µM (inactive) | > 100 µM (inactive) |  | > 100 µM (inactive) | 45.1 µM (inactive) | 44.9 µM (inactive) | > 100 µM (inactive) |  | 18.8 µM (inactive) |  | 46.7 µM (inactive) |  |  |  |  |
| CCCc1n[nH]c(CCC(=O)N(Cc2ccccc2)Cc2ccccc2)c1CC | > 100 µM (inactive) | > 100 µM (inactive) | > 100 µM (inactive) | > 100 µM (inactive) | > 100 µM (inactive) | > 100 µM (inactive) | > 100 µM (inactive) | > 100 µM (inactive) |  | > 100 µM (inactive) | > 100 µM (inactive) |  | > 100 µM (inactive) |  | > 100 µM (inactive) | > 100 µM (inactive) |  |  |  |  |
| COc1ccc(/C=C/c2cc(OC)c(OC(C)=O)c(OC)c2)cc1 | 30.8 µM (inactive) | 20.7 µM (inactive) | 20.7 µM (inactive) | 22 µM (inactive) |  | 31.8 µM (inactive) | 21.6 µM (inactive) | 1.94 µM (inactive) |  | 41.2 µM (inactive) | 26.5 µM (inactive) |  | 31.2 µM (inactive) | 28.1 µM (inactive) |  | 26.5 µM (inactive) |  |  |  |  |
| CCSC1=CC2(O)N(CCc3ccc(OC)c(OC)c3)C(=O)CC2(C(=O)OC)CC1=O (stereo unspecified) | 34 µM (inactive) | 18.5 µM (inactive) | 18.4 µM (inactive) | 16.6 µM (inactive) | 18.5 µM (inactive) | 29.4 µM (inactive) | > 100 µM (inactive) | > 100 µM (inactive) | 32.7 µM (inactive) | 18.2 µM (inactive) | 18.6 µM (inactive) | 19.6 µM (inactive) |  | 14.6 µM (inactive) | 41.2 µM (inactive) |  | 19.7 µM (inactive) | 18.4 µM (inactive) | 18.7 µM (inactive) | 18.2 µM (inactive) |
| CCOC(=O)C(NC(=O)CC)(N1CCN(c2cc3c(cc2F)c(=O)c(C(=O)O)cn3C2CC2)CC1)C(F)(F)F (stereo unspecified) | 91.8 µM (inactive) | > 100 µM (inactive) | > 100 µM (inactive) | > 100 µM (inactive) | > 100 µM (inactive) | > 100 µM (inactive) | > 100 µM (inactive) | > 100 µM (inactive) | > 100 µM (inactive) | > 100 µM (inactive) | > 100 µM (inactive) | > 100 µM (inactive) |  | 70.8 µM (inactive) | > 100 µM (inactive) |  | > 100 µM (inactive) | > 100 µM (inactive) | > 100 µM (inactive) | > 100 µM (inactive) |
| CC(C)(C)NC(=O)/C(=C\Sc1ccccc1)c1ccccc1 | 40.6 µM (inactive) | > 100 µM (inactive) | > 41.7 µM (inactive) | > 60 µM (inactive) | > 100 µM (inactive) | 19.6 µM (inactive) | > 72.1 µM (inactive) | > 100 µM (inactive) | > 100 µM (inactive) | > 100 µM (inactive) | > 100 µM (inactive) | 46.6 µM (inactive) |  | 2.54 µM (inactive) | 52.5 µM (inactive) |  | > 73.8 µM (inactive) | > 30.3 µM (inactive) | > 76.2 µM (inactive) | > 100 µM (inactive) |
| CC(C)(CO)CNc1cc(Cl)nc(N)n1 | > 100 µM (inactive) | > 100 µM (inactive) | > 100 µM (inactive) | > 100 µM (inactive) | > 100 µM (inactive) | > 100 µM (inactive) | > 100 µM (inactive) | > 100 µM (inactive) | > 100 µM (inactive) | > 100 µM (inactive) | > 100 µM (inactive) | > 100 µM (inactive) |  | > 100 µM (inactive) | > 100 µM (inactive) |  | > 100 µM (inactive) | > 100 µM (inactive) | > 100 µM (inactive) | > 100 µM (inactive) |
| CCC1C(C(=O)Nc2ccccc2C)=C(C)NC(C)=C1c1ccccc1C (stereo unspecified) | 55.1 µM (inactive) | > 100 µM (inactive) | > 100 µM (inactive) | > 100 µM (inactive) | > 100 µM (inactive) | 31.8 µM (inactive) | > 100 µM (inactive) | > 100 µM (inactive) | 11.6 µM (inactive) | > 100 µM (inactive) | > 100 µM (inactive) | 2.88 µM (inactive) | > 49 µM (inactive) | > 100 µM (inactive) | > 100 µM (inactive) |  |  |  |  |  |
| COC(=O)C1C(O)C(C)C(O)C(C)(O)C=C(C)C2=C3C(=C(C)C(=O)c4c(O)c(c(C)c(OC(C)=O)c43)NC(=O)C(C)=C/C=C\C(C)(O)C(O)C(C)C1O)OCO2 (stereo unspecified) | 49.8 µM (inactive) | 57.4 µM (inactive) | > 100 µM (inactive) | > 100 µM (inactive) | 80.2 µM (inactive) | 45.4 µM (inactive) | > 100 µM (inactive) | > 100 µM (inactive) | 25.2 µM (inactive) | 25.7 µM (inactive) | 62.2 µM (inactive) | 49.4 µM (inactive) |  | 24.7 µM (inactive) | 18.3 µM (inactive) |  | 41.3 µM (inactive) | > 100 µM (inactive) | 32.5 µM (inactive) | > 100 µM (inactive) |
